In US20260374739A1, “SMALL MOLECULAR WEIGHT CHEMICAL COMPOUND TO ANTAGONIZE EPH-EPHRIN TETRAMERIZATION AND INHIBIT BIDIRECTIONAL SIGNALING” (THE BOARD OF REGENTS OF THE UNIVERSITY OF TEXAS SYSTEM, priority 2022, published 2026):
“And” between values parts separate entries of the source, which are not always exact repeats. Identical values can stand only once. Like-named read-outs stand apart in the source and are kept apart here.

Experiments:
[1] = target: T1, EphB4-EphrinB2 (Mus musculus, UniProt P54761); assay: Octet RED384, immobilized mouse EphB4-Fc binding to mouse EB2-His
T1 construct: biosensor immobilized rodent EphB1-Fc and EphB4-Fc ectodomain proteins; mouse EB2-His residues 18-232; purchased R&D Systems (EphB-Fc); Sino Biologicals (EphrinB-His)
T1 sequence (P54761 16-539 limits assumed): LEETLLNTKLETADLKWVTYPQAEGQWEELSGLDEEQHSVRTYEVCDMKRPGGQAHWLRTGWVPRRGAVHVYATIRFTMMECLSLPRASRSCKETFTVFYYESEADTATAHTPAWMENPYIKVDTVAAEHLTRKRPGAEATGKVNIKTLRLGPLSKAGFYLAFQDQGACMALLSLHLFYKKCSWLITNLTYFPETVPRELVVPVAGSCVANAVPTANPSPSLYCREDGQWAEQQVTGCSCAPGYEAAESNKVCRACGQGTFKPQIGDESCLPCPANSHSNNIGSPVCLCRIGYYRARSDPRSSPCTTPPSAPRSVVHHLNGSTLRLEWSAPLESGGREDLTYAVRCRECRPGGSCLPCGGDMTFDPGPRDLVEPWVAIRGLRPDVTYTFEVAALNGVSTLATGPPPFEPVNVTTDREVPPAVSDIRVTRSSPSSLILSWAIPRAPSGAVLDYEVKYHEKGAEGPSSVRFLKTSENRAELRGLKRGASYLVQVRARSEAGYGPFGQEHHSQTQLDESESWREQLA
Description: […] Association time was for 400 sec and dissociation time was for 500 sec. Binding assays were conducted in PBS containing 0.05% Tween-20 and 1% DMSO.

[2] = target: T2, EphA3-EphrinA5 (Homo sapiens, UniProt P29320); assay: Octet, immobilized human EphA3 binding to human EphrinA5
T2 sequence (P29320 21-541 limits assumed): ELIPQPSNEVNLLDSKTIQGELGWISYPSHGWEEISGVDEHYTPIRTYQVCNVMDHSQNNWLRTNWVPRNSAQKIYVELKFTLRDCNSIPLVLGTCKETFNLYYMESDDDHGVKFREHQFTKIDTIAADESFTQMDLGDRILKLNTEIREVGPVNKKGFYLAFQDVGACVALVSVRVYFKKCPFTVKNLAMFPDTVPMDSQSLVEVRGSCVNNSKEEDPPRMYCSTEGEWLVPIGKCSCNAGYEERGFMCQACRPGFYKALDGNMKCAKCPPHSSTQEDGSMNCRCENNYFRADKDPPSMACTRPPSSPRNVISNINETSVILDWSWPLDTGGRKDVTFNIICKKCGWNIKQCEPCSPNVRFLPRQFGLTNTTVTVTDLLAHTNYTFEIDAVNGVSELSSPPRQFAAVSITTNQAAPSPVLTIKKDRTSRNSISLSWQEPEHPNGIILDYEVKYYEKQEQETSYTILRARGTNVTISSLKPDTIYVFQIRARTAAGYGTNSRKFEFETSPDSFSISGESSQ
Description: The Octet system was used to probe the interactions of epitope-tagged human A class proteins, focusing on immobilized EphA3 binding to two of its cognate ligands, EphrinA1 and EphrinA5, as well as EphB2 binding to EphrinA5 (FIG. 27). […] Focusing on the dimerization-driven EphA3-EA5 interaction first (green sensorgram trace), which mimics what is disclosed above for EphB4-EB2, the initial binding of soluble EphrinA5 to the immobilized EphA3 is very fast and strong with a long and steep 84° slope of response that then quickly bends around 35 sec into the association step to form a more gradual tetramerization accumulation slope. […] However, again like the EphB4-EB2 interaction, once placed into dissociation, a significant fraction of the bound EA5 protein melts quickly and the off phase continues downward with a slow gradual decline in bound protein. Although the dissociation was for only 500 sec, the continued downward slope of the response indicates most of the bound EA5 protein would eventually melt off of the immobilized EphA3 protein. This is referred to as a classic dimerization-driven interaction, fast and strong initial binding in the association step but with most of the bound protein coming off in the dissociation due to lack of formation of stable tetramers. EphA3 interacts with EphrinA1 with totally different kinetics/dynamics (orange sensorgram trace). Here, the initial high 84° dimerization slope phase is extremely brief (5 sec) with the binding quickly snapping into a linear tetramerization accumulation phase with a 25° slope, and that once placed into dissociation step almost no bound protein melts, just the small amount that would represent dimer interactions falling off in the first few seconds after being placed into dissociation. […] EphB2 interacting with EA5 is similar to the EphA3-EA1 interaction, in that the association step is characterized by a very brief (5 sec) high 84° slope phase that quickly bends into a more gradual tetramer accumulation phase (blue sensorgram trace). […] The strong initial off phase of the EphB2-EA5 complexes in the dissociation represents both the melting of weak dimers and of the relatively weaker affinity tetramers formed by the cross A/B class EphB2-EA5 molecules.
While there is no effect of A20 on the initial 5 sec fast EphA3-EA1 dimer phase, there is a very strong effect of compound on tetramer accumulation. It was estimated that >70% of the EphA3-EA1 binding interaction can be attributed to the tetramer which is effectively disrupted by compound, with very little binding activity attributed to the dimer and more accurately the dimerization:tetramerization ratio of this interaction is 10:90 not 30:70. […] Since this is a dimerization-driven type interaction (dimerization:tetramerization ratio of here is 72:28), the overall effect of compound on this interaction is muted.

[3] = mEphB4-mEphrinB2, immobilized mouse EphB4, 50 nM soluble mouse EphrinB2, association, absolute, read-out: Absolute Association IC50
[4] = mEphB4-mEphrinB2, immobilized mouse EphB4, 50 nM soluble mouse EphrinB2, association, relative, read-out: Relative Association IC50
[5] = mEphB4-mEphrinB2, immobilized mouse EphB4, 50 nM soluble mouse EphrinB2, dissociation, absolute, read-out: Absolute Dissociation IC50
[6] = mEphB4-mEphrinB2, immobilized mouse EphB4, 50 nM soluble mouse EphrinB2, dissociation, relative, read-out: Relative Dissociation IC50
[7] = Human EphA3-EphrinA5, immobilized human EphA3, 50 nM soluble human EphrinA5, association, absolute, read-out: Absolute Association IC50
[8] = Human EphA3-EphrinA5, immobilized human EphA3, 50 nM soluble human EphrinA5, association, relative, read-out: Relative Association IC50
[9] = Human EphA3-EphrinA5, immobilized human EphA3, 50 nM soluble human EphrinA5, dissociation, relative, read-out: Relative Dissociation IC50
[10] = Human EphA3-EphrinA5, immobilized human EphA3, 50 nM soluble human EphrinA5, dissociation, absolute, read-out: Absolute Dissociation IC50

Compound	IC50 [1, 3]	IC50 [1, 4]	IC50 [1, 5]	IC50 [1, 6] [nM]	IC50 [2] [nM]	IC50 [2, 7] [nM]	IC50 [2, 8] [nM]	IC50 [2, 9] [nM]	IC50 ([1]; EphB4-EB2, read-out: area under the curve IC50) [nM]	loss of tetramer accumulation ([2]; 1 μM)	IC50 [2, 10] [nM]
O=S1(=O)CCN(Cc2ccc(O)c3ncccc23)CC1 [Compound 15, 4-((8-hydroxyquinolin-1-ium-5-yl)methyl)thiomorpholin-4-ium 1,1-dioxide chloride]	100000 nM	> 10000 nM	13200 nM	630	2100	100000	> 1000	< 1000	–	–	–
Oc1c(Br)cc(CN2CCOCC2)c2cccnc12 [Compound 5, 7-bromo-5-(morpholinomethyl)quinolin-8-ol]	–	–	–	–	–	–	–	–	> 100000	striking maximized loss of tetramer accumulation	–
Oc1c(Cl)cc(CN2CCOCC2)c2cccnc12 [Compound 4, 4-((7-chloro-8-hydroxyquinolin-1-ium-5-yl)methyl)morpholin-4-ium chloride]	> 10000 nM	3190 nM	840 nM	530	540	12900	1000	–	–	–	620
Oc1c(I)cc(CN2CCOCC2)c2cccnc12 [Compound 8, 4-((8-hydroxy-7-iodoquinolin-1-ium-5-yl)methyl)morpholin-4-ium chloride]	> 1600 nM and 100000 nM	510 nM and 340 nM	650 nM and 680 nM	530	360	> 1600	500	–	–	–	480
Oc1c(Br)cc(CN2CCOCC2)c2cccnc12 [Compound 6, 4-((7-bromo-8-hydroxyquinolin-1-ium-5-yl)methyl)morpholin-4-ium chloride]	100000 nM	220 nM	410 nM	220	370	100000	520	–	–	–	520
O=[N+]([O-])c1cc(CN2CCOCC2)c2cccnc2c1O [Compound 10, 4-((8-hydroxy-7-nitroquinolin-1-ium-5-yl)methyl)morpholin-4-ium chloride]	100000 nM	6380 nM	2630 nM	2380	4480	100000	2490	790	–	–	–
Oc1ccc(CN2CCN(Cc3ccc(C(F)(F)F)cc3)CC2)c2cccnc12 [Compound 48, 5-((4-(4-(trifluoromethyl)benzyl)piperazin-1-yl)methyl)quinolin-8-ol]	–	8240 nM	–	1890	4330	100000	3250	–	–	–	6240
Oc1ccc(CN2CCOCC2)c2cccnc12 [Compound 1, 5-(morpholinomethyl)quinolin-8-ol]	100000 nM	100000 nM	100000 nM	–	3220	100000	< 1000	1240	–	–	–
